In article PMC2845915 (Bioconjugate chemistry, 2010):

How the values were obtained:
human A1AR = molecular target: T1, human A1AR (Homo sapiens, UniProt P30542); conditions: at 10 μM, ref Tosh et al. ([15], [21]) and Melman et al. ([14]); cited from earlier work
T1 sequence (P30542 1-326): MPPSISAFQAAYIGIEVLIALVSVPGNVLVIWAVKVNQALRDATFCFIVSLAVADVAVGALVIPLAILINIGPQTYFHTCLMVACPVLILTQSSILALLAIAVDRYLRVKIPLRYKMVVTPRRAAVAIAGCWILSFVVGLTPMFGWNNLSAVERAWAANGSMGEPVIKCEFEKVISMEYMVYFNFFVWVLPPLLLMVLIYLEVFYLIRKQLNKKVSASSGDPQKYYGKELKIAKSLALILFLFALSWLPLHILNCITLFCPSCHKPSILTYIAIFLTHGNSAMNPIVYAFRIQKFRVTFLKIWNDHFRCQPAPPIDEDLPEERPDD

human P2Y14 receptor = molecular target: T2, human P2Y14 receptor (Homo sapiens, UniProt Q15391); conditions: read-out: Potency at the P2Y14 receptor in the same assay; C6 cells expressing the human P2Y14 receptor; cited from earlier work
T2 sequence (Q15391 1-338): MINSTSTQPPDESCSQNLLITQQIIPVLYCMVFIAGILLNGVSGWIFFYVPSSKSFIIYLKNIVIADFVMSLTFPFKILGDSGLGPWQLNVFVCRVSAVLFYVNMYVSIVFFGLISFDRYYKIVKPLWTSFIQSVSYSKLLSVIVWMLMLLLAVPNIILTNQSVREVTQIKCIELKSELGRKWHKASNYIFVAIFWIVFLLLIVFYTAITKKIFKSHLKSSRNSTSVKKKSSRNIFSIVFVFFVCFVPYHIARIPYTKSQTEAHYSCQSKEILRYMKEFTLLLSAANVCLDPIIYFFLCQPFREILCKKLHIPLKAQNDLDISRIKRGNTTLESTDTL

human A3AR [1] = molecular target: T3, human A3AR (Homo sapiens, UniProt P0DMS8); experiment: Radioligand binding at human A3AR; conditions: human ARs
T3 sequence (P0DMS8 1-318): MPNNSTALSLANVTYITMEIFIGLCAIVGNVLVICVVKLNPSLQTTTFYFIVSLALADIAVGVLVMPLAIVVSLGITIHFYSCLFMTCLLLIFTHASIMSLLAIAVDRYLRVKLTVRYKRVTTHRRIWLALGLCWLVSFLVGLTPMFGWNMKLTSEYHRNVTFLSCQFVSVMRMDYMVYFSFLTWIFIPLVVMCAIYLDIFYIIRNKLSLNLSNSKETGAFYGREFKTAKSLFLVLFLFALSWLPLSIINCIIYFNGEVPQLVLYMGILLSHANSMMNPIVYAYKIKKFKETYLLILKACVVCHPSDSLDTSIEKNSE

human A2AAR = human A2AAR (Homo sapiens, UniProt P29274); conditions: read-out: Affinity (Ki) A2 (A2A), [3H]CGS21680, HEK293, ref Tosh et al. ([15], [21]) and Melman et al. ([14]); cited from earlier work
Chain of human A2AAR (P29274 whole entry): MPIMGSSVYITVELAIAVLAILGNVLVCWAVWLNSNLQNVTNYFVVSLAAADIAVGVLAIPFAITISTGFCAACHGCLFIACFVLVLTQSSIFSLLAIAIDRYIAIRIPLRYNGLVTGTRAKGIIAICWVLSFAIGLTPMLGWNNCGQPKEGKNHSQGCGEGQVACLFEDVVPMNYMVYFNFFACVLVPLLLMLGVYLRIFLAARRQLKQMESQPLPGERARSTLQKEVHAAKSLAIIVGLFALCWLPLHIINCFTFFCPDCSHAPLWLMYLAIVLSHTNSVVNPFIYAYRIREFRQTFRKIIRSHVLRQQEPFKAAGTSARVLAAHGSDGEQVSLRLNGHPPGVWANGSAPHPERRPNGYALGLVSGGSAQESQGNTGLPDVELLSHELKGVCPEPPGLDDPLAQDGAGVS

human A3AR [2] = molecular target: T3, human A3AR; conditions: cited from earlier work

Structure (SMILES) | % inhibition of radioligand binding A1 (human A1AR) | EC50 (human P2Y14 receptor) [nM] | Selectivity for the A3AR in comparison to the A1AR (human A3AR [1]) [fold] | Ki (human A2AAR) [nM] | Selectivity for the A3AR (human A3AR [2])
C#CCCCCC#Cc1nc(NCc2cccc(Cl)c2)c2ncn([C@H]3[C@H](O)[C@H](O)[C@]4(C(=O)NC)C[C@H]34)c2n1 [Compound 3a] | (31±2%) at 10 μM | – | – | – | –
O=C(O)[C@H]1O[C@H](OP(=O)(O)OP(=O)(O)OC[C@H]2O[C@@H](n3ccc(=O)[nH]c3=O)[C@H](O)[C@@H]2O)[C@H](O)[C@@H](O)[C@@H]1O [UDPGA, uridine-5′-diphosphoglucuronic acid] | – | 200 to 300 | – | – | –
CNC(=O)[C@@]12C[C@@H]1[C@@H](n1cnc3c(NCc4cccc(Cl)c4)nc(C#CCCCCc4cn(CCNC(C)=O)nn4)nc31)[C@H](O)[C@@H]2O [Compound 4a] | (12±4%) at 10 μM | – | > 500 | 2440 ± 320 | at least 100 fold
CNC(=O)[C@@]12C[C@@H]1[C@@H](n1cnc3c(NCc4cccc(Cl)c4)nc(Cl)nc31)[C@H](O)[C@@H]2O [Compound 2] | – | – | – | 2300 ± 100 | –
